Reference: US4296112A, “Cephalosporins” (Mitsui Toatsu Chemicals, Inc., priority 1979, dated 1981)

Key:
[1] = tested on: Bacillus cereus (IAM 1792); assay: MIC, agar plate dilution (Referential Example 1, Table 1); assay type: cell-based; conditions: IAM1792, HIA medium plate, 37° C., 18 hours, read-out: Minimum growth inhibitory concentration (MIC)
Protocol: (§1) The antibacterial activities of the cephalosporins of this invention were measured using the sodium salts of the compounds obtained in Synthesis Examples 1 and 2. The procedure and the results are shown in Referential Example 1.
(§2) Carbenicillin sodium salt (CB-PC) and cephazoline sodum salt (CEZ) were used as controls.
(§3) The antibacterial activities of the test compounds against various Gram-positive and Gram-negative bacteria were determined in a customary manner by the minimum growth inhibitory concentration method (MIC method).
(§4) The experimental procedure was as follows:
(§5) A commercially available heart infusion agar medium (to be abbreviated HIA medium) was used as an assay medium, and a commercially available trypto-soy bouillon medium (to be abbreviated TSB) was used as a medium for the growth of test bacterial strains.
(§6) The test compound was diluted with the melted HIA medium to 100 μg/ml as a maximum concentration, and then serially diluted double. The dilutions were poured into sterilized Petri dishes respectively and allowed to cool and solidify to prepare plates containing the test compound.
(§7) The test bacterial strain was cultivated at 37° C. for 18 to 24 hours in the TSB medium. The culture broth was diluted to 50 to 500 times with a freshly prepared TSB culture medium, and one platinum loopful of the dilution was inoculated in each of the plates containing the test compound.

[2] = tested on: Citrobacter freundii (F-34); assay: as above; assay type: cell-based; conditions: HIA medium plate, 37° C., 18 hours, read-out: Minimum growth inhibitory concentration (MIC)
Protocol: as §1, §2, §3, §4, §5, §6, §7

[3] = tested on: Enterobacter aerogenes (IFO 3320); assay: as above; assay type: cell-based; conditions: Klebsiella aerogenes, IFO3320, 18 h, read-out: Minimum growth inhibitory concentration (MIC)
Protocol: as §1, §2, §3, §4, §5, §6, §7

[4] = tested on: Enterobacter cloacae (D-49); assay: as above; assay type: cell-based; conditions: HIA medium plate, 37° C., 18 hours, read-out: Minimum growth inhibitory concentration (MIC)
Protocol: as §1, §2, §3, §4, §5, §6, §7

[5] = tested on: Escherichia coli (14H114); assay: as above; assay type: cell-based; conditions: HIA medium plate, 37° C., 18 hours, read-out: Minimum growth inhibitory concentration (MIC)
Protocol: as §1, §2, §3, §4, §5, §6, §7

[6] = tested on: Escherichia coli (26RO3); assay: as above; assay type: cell-based; conditions: HIA medium plate, 37° C., 18 hours, read-out: Minimum growth inhibitory concentration (MIC)
Protocol: as §1, §2, §3, §4, §5, §6, §7

[7] = tested on: Escherichia coli (K-12); assay: as above; assay type: cell-based; conditions: HIA medium plate, 37° C., 18 hours, read-out: Minimum growth inhibitory concentration (MIC)
Protocol: as §1, §2, §3, §4, §5, §6, §7

[8] = tested on: Escherichia coli (NIHJ); assay: as above; assay type: cell-based; conditions: HIA medium plate, 37° C., 18 hours, read-out: Minimum growth inhibitory concentration (MIC)
Protocol: as §1, §2, §3, §4, §5, §6, §7

[9] = tested on: Klebsiella pneumonia (F-5089); assay: as above; assay type: cell-based; conditions: Klebsiella pneumoniae; HIA medium plate, 37° C., 18 hours; read-out: Minimum growth inhibitory concentration (MIC)
Protocol: as §1, §2, §3, §4, §5, §6, §7

[10] = tested on: Klebsiella pneumoniae (ATCC 10031); assay: as above; assay type: cell-based; conditions: ATCC10031, HIA medium plate, 37° C., 18 hours, read-out: Minimum growth inhibitory concentration (MIC)
Protocol: as §1, §2, §3, §4, §5, §6, §7

[11] = tested on: Klebsiella pneumoniae (B-172); assay: as above; assay type: cell-based; conditions: HIA medium plate, 37° C., 18 hours, read-out: Minimum growth inhibitory concentration (MIC)
Protocol: as §1, §2, §3, §4, §5, §6, §7

[12] = tested on: Klebsiella pneumoniae (Horino); assay: as above; assay type: cell-based; conditions: HIA medium plate, 37° C., 18 hours, read-out: Minimum growth inhibitory concentration (MIC)
Protocol: as §1, §2, §3, §4, §5, §6, §7

[13] = tested on: Proteus morganii (C-39); assay: as above; assay type: cell-based; conditions: Morganella morganii; HIA medium plate, 37° C., 18 hours; read-out: Minimum growth inhibitory concentration (MIC)
Protocol: as §1, §2, §3, §4, §5, §6, §7

[14] = tested on: Proteus rettgeri (T-2); assay: as above; assay type: cell-based; conditions: Providencia rettgeri; HIA medium plate, 37° C., 18 hours; read-out: Minimum growth inhibitory concentration (MIC)
Protocol: as §1, §2, §3, §4, §5, §6, §7

[15] = tested on: Proteus vulgaris (OX-19); assay: as above; assay type: cell-based; conditions: HIA medium plate, 37° C., 18 hours, read-out: Minimum growth inhibitory concentration (MIC)
Protocol: as §1, §2, §3, §4, §5, §6, §7

[16] = tested on: Pseudomonas aeruginosa (395); assay: as above; assay type: cell-based; conditions: HIA medium plate, 37° C., 18 hours, read-out: Minimum growth inhibitory concentration (MIC)
Protocol: as §1, §2, §3, §4, §5, §6, §7

[17] = tested on: Pseudomonas aeruginosa (718); assay: as above; assay type: cell-based; conditions: HIA medium plate, 37° C., 18 hours, read-out: Minimum growth inhibitory concentration (MIC)
Protocol: as §1, §2, §3, §4, §5, §6, §7

[18] = tested on: Pseudomonas aeruginosa (ATCC 10145); assay: as above; assay type: cell-based; conditions: ATCC10145, HIA medium plate, 37° C., 18 hours, read-out: Minimum growth inhibitory concentration (MIC)
Protocol: as §1, §2, §3, §4, §5, §6, §7

[19] = tested on: Pseudomonas aeruginosa (F1629); assay: as above; assay type: cell-based; conditions: HIA medium plate, 37° C., 18 hours, read-out: Minimum growth inhibitory concentration (MIC)
Protocol: as §1, §2, §3, §4, §5, §6, §7

[20] = tested on: Pseudomonas aeruginosa (IFO-3901); assay: as above; assay type: cell-based; conditions: IFO3901, HIA medium plate, 37° C., 18 hours, read-out: Minimum growth inhibitory concentration (MIC)
Protocol: as §1, §2, §3, §4, §5, §6, §7

[21] = tested on: Pseudomonas aeruginosa (NCTC 7244); assay: as above; assay type: cell-based; conditions: NCTC7244, HIA medium plate, 37° C., 18 hours, read-out: Minimum growth inhibitory concentration (MIC)
Protocol: as §1, §2, §3, §4, §5, §6, §7

[22] = tested on: Pseudomonas aeruginosa (S-1); assay: as above; assay type: cell-based; conditions: HIA medium plate, 37° C., 18 hours, read-out: Minimum growth inhibitory concentration (MIC)
Protocol: as §1, §2, §3, §4, §5, §6, §7

[23] = tested on: Pseudomonas maltophilia (F-6257); assay: as above; assay type: cell-based; conditions: Stenotrophomonas maltophilia; HIA medium plate, 37° C., 18 hours; read-out: Minimum growth inhibitory concentration (MIC)
Protocol: as §1, §2, §3, §4, §5, §6, §7

[24] = tested on: Salmonella enteritidis (KB-21); assay: as above; assay type: cell-based; conditions: Salmonella enterica, 18 h, read-out: Minimum growth inhibitory concentration (MIC)
Protocol: as §1, §2, §3, §4, §5, §6, §7

[25] = tested on: Serratia marcescens (S-33); assay: as above; assay type: cell-based; conditions: HIA medium plate, 37° C., 18 hours, read-out: Minimum growth inhibitory concentration (MIC)
Protocol: as §1, §2, §3, §4, §5, §6, §7

[26] = tested on: Shigella flexneri (K-A); assay: as above; assay type: cell-based; conditions: HIA medium plate, 37° C., 18 hours, read-out: Minimum growth inhibitory concentration (MIC)
Protocol: as §1, §2, §3, §4, §5, §6, §7

[27] = tested on: Staphylococcus aureus (FDA 209P); assay: as above; assay type: cell-based; conditions: FDA209P, 18 h, read-out: Minimum growth inhibitory concentration (MIC)
Protocol: as §1, §2, §3, §4, §5, §6, §7

[28] = tested on: Staphylococcus aureus (Y-8); assay: as above; assay type: cell-based; conditions: HIA medium plate, 37° C., 18 hours, read-out: Minimum growth inhibitory concentration (MIC)
Protocol: as §1, §2, §3, §4, §5, §6, §7

[29] = tested on: Streptococcus faecalis (Hoshi); assay: as above; assay type: cell-based; conditions: Enterococcus faecalis; HIA medium plate, 37° C., 18 hours; read-out: Minimum growth inhibitory concentration (MIC)
Protocol: as §1, §2, §3, §4, §5, §6, §7

[30] = tested on: Pseudomonas aeruginosa (NCTC 7244); assay: MIC in HIB medium by turbidity (Referential Example 2, Table 2); assay type: cell-based; conditions: NCTC7244, 18 h, 37° C.
Protocol: (§8) The compounds obtained in Synthesis Examples 1 to 4 were tested in the following manner.
(§9) A suspension of Pseudomonas aeruginosa (NCTC 7244) cultivated at 37° C. for 18 hours in a heart infusion broth medium (HIB medium) in a final amount of 10^5, 10^6 and 10^7 cells/ml in an HIB medium containing each of the test compounds which was obtained in the same way as in Referential Example 1 except that the maximum concentration of the test compound was 200 μg/ml. The bacterial strain was cultivated at 37° C. for 18 hours, and the turbidity of the culture broth was evaluated with the naked eye. The minimum concentration of the test compound at which no turbidity was noted was defined as MIC.

[31] = tested on: Pseudomonas aeruginosa (NCTC 7244); assay: Minimum bactericidal concentration (Referential Example 2, Table 2); assay type: cell-based; conditions: NCTC7244, 18 h, subculture on HIA medium
Protocol: as §8, §9
The growth of the bacterial strain was evaluated.

[32] = tested on: Pseudomonas aeruginosa; conditions: background art, in words; cited from earlier work

## CC1(C)S[C@@H]2[C@H](NC(=O)C(C(=O)O)c3ccccc3)C(=O)N2[C@H]1C(=O)O (stereo partly drawn) [CB-PC, disodium-α-carboxybenzyl penicillin]
[1]
  MIC: 100 µg/mL
[2]
  MIC: 3.13 µg/mL
[3]
  MIC: 1.56 µg/mL
[4]
  MIC: > 100 µg/mL
[5]
  MIC: > 100 µg/mL
[6]
  MIC: 3.13 µg/mL
[7]
  MIC: 6.25 µg/mL
[8]
  MIC: 6.25 µg/mL
[9]
  MIC: 50 µg/mL
[10]
  MIC: > 100 µg/mL
[11]
  MIC: 25 µg/mL
[12]
  MIC: 100 µg/mL
[13]
  MIC: 6.25 µg/mL
[14]
  MIC: 3.13 µg/mL
[15]
  MIC: 6.25 µg/mL
[16]
  MIC: 25 µg/mL
[17]
  MIC: > 100 µg/mL
[18]
  MIC: > 100 µg/mL
[19]
  MIC: > 100 µg/mL
[20]
  MIC: 100 µg/mL
[21]
  MIC: 100 µg/mL
[22]
  MIC: 25 µg/mL
[23]
  MIC: 25 µg/mL
[24]
  MIC: 1.56 µg/mL
[25]
  MIC: 6.25 µg/mL
[26]
  MIC: 1.56 µg/mL
[27]
  MIC: 1.56 µg/mL
[28]
  MIC: 12.5 µg/mL
[29]
  MIC: 50 µg/mL
[30]; 10^5 cells/ml inoculated
  MIC: 50 µg/mL
[30]; 10^6 cells/ml inoculated
  MIC: 100 µg/mL
[30]; 10^7 cells/ml inoculated
  MIC: 200 µg/mL
[31]; 10^5 cells/ml inoculated
  MBC: 100 µg/mL
[31]; 10^6 cells/ml inoculated
  MBC: 100 µg/mL
[31]; 10^7 cells/ml inoculated
  MBC: > 200 µg/mL
[32]
  activity on Pseudomonas aeruginosa: low activity on Pseudomonas aeruginosa
  effectiveness for infections caused by Pseudomonas aeruginosa: ineffective for Pseudomonas aeruginosa-induced infections of difficultly curable nature
